Results from paper PMC9120017, “Inhibition mechanism of the chloride channel TMEM16A by the pore blocker 1PBC” (Nature Communications, 2022).
Like-named read-outs stand apart in the source and are kept apart here.

Biological target: T1, mouse TMEM16A mutant I551A (Mus musculus, UniProt Q8BHY3, I551A)
T1 construct: expressed in transfected cells; host or cells: HEK293T
T1 sequence (Q8BHY3 1-960 I551A): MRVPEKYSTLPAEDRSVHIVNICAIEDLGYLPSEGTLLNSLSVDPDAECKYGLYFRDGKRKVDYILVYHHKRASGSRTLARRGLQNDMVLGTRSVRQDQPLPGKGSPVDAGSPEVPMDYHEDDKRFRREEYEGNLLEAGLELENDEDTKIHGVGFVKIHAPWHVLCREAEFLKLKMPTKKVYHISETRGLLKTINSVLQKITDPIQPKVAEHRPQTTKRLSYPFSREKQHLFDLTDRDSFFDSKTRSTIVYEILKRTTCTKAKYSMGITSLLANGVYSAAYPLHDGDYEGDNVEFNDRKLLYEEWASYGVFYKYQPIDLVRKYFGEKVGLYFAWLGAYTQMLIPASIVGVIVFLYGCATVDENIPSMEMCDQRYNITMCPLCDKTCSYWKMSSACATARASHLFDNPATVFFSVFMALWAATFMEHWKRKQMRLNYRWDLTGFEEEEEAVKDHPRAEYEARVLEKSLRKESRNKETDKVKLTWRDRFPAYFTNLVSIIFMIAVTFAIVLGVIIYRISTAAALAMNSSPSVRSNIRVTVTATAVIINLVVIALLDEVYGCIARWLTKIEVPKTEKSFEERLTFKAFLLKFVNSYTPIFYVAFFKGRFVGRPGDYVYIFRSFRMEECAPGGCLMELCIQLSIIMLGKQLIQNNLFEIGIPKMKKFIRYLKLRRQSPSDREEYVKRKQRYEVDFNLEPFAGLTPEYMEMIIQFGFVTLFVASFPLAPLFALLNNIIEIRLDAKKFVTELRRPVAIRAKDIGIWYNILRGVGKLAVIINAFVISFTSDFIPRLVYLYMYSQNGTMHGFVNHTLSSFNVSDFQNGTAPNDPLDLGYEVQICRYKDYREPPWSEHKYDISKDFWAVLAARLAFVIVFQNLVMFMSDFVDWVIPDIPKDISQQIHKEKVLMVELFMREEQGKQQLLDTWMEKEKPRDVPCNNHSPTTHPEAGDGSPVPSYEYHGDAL
Assay: Inside-out patch recording of 1PBC block, constitutively active mutant I551A
Assay type: cell-based
Details: for remaining activity at 3 µM: 3 µM 1PBC; for remaining activity at 10 µM: 10 µM 1PBC; for remaining activity at 30 µM: 30 µM 1PBC
Procedure: HEK293T cells (ATCC CRL-1573) were maintained in Dulbecco’s modified Eagle’s medium (DMEM; Sigma-Aldrich) supplemented with 10 U ml^−1 penicillin, 0.1 mg ml^−1 streptomycin (Sigma-Aldrich), 2 mM L-glutamine (Sigma-Aldrich), and 10% FBS (Sigma-Aldrich) in a humidified atmosphere containing 5% CO2 at 37 °C. HEK293S GnTI^− cells (ATCC CRL-3022) were maintained in HyClone HyCell TransFx-H medium (GE Healthcare) supplemented with 10 U ml^−1 penicillin, 0.1 mg ml^−1 streptomycin, 4 mM L-glutamine, 0.15% poloxamer 188 (Sigma-Aldrich), and 1% FBS in an atmosphere containing 5% CO2 at 185 rpm at 37 °C. The ac splice variant of mouse TMEM16A (UniProt ID: Q8BHY3), mouse TMEM16B (UniProt ID: Q8CFW1), or mouse TMEM16F (UniProt ID: Q6P9J9) bearing a 3C cleavage site, a Venus YFP, a Myc tag, and a Streptavidin-binding peptide (SBP) downstream of the open reading frame in a modified pcDNA3.1 vector (Invitrogen) were used as described previously[21],[31]. Mutations were introduced using a modified QuikChange method[58] and were verified by sequencing.
HEK293T cells were transfected with 3–4 μg DNA per 6 cm Petri dish using the calcium phosphate co-precipitation method and were used within 24–96 h after transfection. Recordings were performed on inside-out patches excised from HEK293T cells expressing the construct of interest. Patch pipettes were pulled from borosilicate glass capillaries (O.D. 1.5 mm, I.D. 0.86 mm, Sutter Instrument) and were fire-polished with a microforge (Narishige) before use. Pipette resistance was typically 3–8 MΩ when filled with the recording solutions detailed below. Seal resistance was typically 4 GΩ or higher. Voltage-clamp recordings were made using Axopatch 200B, Digidata 1550, and Clampex 10.7 (Molecular Devices). Analog signals were filtered with the in-built 4-pole Bessel filter at 10 kHz and were digitized at 20 kHz. Solution exchange was achieved using a gravity-fed system through a theta glass pipette mounted on an ultra-fast piezo-driven stepper (Siskiyou). […] All recordings were performed at 20 °C.
A symmetrical ionic condition was used throughout. Stock solution with Ca^2+-EGTA contained 150 mM NaCl, 5.99 mM Ca(OH)2, 5 mM EGTA, and 10 mM HEPES at pH 7.40. Stock solution with EGTA contained 150 mM NaCl, 5 mM EGTA, and 10 mM HEPES at pH 7.40. Free Ca^2+ concentrations were adjusted by mixing the stock solutions at the required ratios calculated using the WEBMAXC program (http://web.stanford.edu/~cpatton/webmaxcS.htm). Patch pipettes were filled with the stock solution with Ca^2+-EGTA, which has a free Ca^2+ concentration of 1 mM. 1PBC (ChemBridge) stock was reconstituted in anhydrous DMSO (Sigma-Aldrich) at 100 mM and stored at −20 °C. Working solutions with 1PBC were prepared by serial dilution. Unless otherwise stated, experiments were performed at a saturating Ca^2+ concentration as shown in Supplementary Table 1 and the primary data were corrected for current rundown as described previously[21],[25].
Concentration-response relations, obtained from the ratio of the I-V plots before and after the application of the blocker, were fitted to the Hill equation,1 I/Imax=1/1+IC50/[blocker]^h where I/Imax is the normalized current responses, IC50 defines the concentration at which inhibition is at its half-maximum, and h is the Hill coefficient.

[1] = 0 mV, 2 µM Ca2+, read-out: I/Imax
[2] = 0 mV, zero Ca2+, read-out: I/Imax

I/Imax_+80mV (0Ca, 3 μM 1PBC): 0.9297
I/Imax_-80mV (0Ca, 3 μM 1PBC): 0.9659
I/Imax_+80mV (0Ca, 10 μM 1PBC): 0.7725
I/Imax_-80mV (0Ca, 10 μM 1PBC): 0.8504
I/Imax_+80mV (0Ca, 30 μM 1PBC): 0.5277
I/Imax_-80mV (0Ca, 30 μM 1PBC): 0.6475
I/Imax_+80mV (0Ca, 100 μM 1PBC): 0.2921
I/Imax_-80mV (0Ca, 100 μM 1PBC): 0.3933
remaining activity at 1 µM (1 µM 1PBC, 0 mV, 2 µM Ca2+, read-out: I/Imax): 80.9%
remaining activity at 3 µM [1]: 60.1%
remaining activity at 3 µM [2]: 93.2%
remaining activity at 10 µM [1]: 31.1%
remaining activity at 10 µM [2]: 80.6%
remaining activity at 30 µM [1]: 14.8%
remaining activity at 30 µM [2]: 58.2%
remaining activity at 100 µM (100 µM 1PBC, 0 mV, zero Ca2+, read-out: I/Imax): 33.3%
I/Imax_+80mV (Ca, 1 μM 1PBC): 0.7719
I/Imax_-80mV (Ca, 1 μM 1PBC): 0.9016
I/Imax_+80mV (Ca, 3 μM 1PBC): 0.5347
I/Imax_-80mV (Ca, 3 μM 1PBC): 0.7407
I/Imax_+80mV (Ca, 10 μM 1PBC): 0.2656
I/Imax_-80mV (Ca, 10 μM 1PBC): 0.4452
I/Imax_+80mV (Ca, 30 μM 1PBC): 0.1169
I/Imax_-80mV (Ca, 30 μM 1PBC): 0.2272
SMILES: N#Cc1c(C(F)(F)F)cc(O)n2c1nc1ccccc12 [1PBC]
